This passage reports IC50 results from ChEMBL document CHEMBL5241107, “Discovery of an eIF4A Inhibitor with a Novel Mechanism of Action” (J Med Chem, 2021).

pIC50: −log10 of the molar value.

Sequence of Eukaryotic initiation factor 4A-I (P60842 whole entry): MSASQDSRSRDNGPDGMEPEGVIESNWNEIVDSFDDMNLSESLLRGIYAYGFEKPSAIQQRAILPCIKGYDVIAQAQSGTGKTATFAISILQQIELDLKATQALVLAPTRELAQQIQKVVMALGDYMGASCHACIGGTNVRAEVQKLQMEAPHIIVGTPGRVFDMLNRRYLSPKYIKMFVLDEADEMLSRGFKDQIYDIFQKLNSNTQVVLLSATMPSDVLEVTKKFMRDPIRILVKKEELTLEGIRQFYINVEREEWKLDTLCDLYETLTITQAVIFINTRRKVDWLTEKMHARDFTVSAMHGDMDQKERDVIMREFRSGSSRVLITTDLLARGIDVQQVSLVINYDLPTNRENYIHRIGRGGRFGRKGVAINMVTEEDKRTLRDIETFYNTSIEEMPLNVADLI

The experiment concerns the target Eukaryotic initiation factor 4A-I (Homo sapiens, UniProt P60842). The experiment is described as follows: Inhibition of human recombinant N-terminal His6-tagged eIF4A expressed in Escherichia coli BL21 CodonPlus cells using ATP and yeast RNA as substrate preincubated with enzyme for 20 mins followed by susbtrate addition and measured after 4 hrs by Malachite green ATPase assay.
The pIC50 is the negative decadic logarithm of the IC50, by convention in mol/L. With `CCCCc1ccc(-c2ccc(-c3cc(C(=O)O)c4cc(Cl)ccc4n3)o2)cc1`, the pIC50 was 4.36.
`CCCCc1ccc(-c2ccc(-c3cc(C(=O)OCC)c4cc(Br)ccc4n3)o2)cc1`: the pIC50 was 3.89.
For `CCCc1ccc(-c2ccc(-c3cc(C(=O)O)c4cc([N+](=O)[O-])ccc4n3)o2)cc1` the value was 4.39.
Consider `CCCCc1ccc(-c2ccc(-c3cc(C(=O)O)c4ccc(F)cc4n3)o2)cc1`, for which the pIC50 is 4.33.
On to `CCCCc1ccc(-c2ccc(-c3cc(C(=O)O)c4cc(OC)ccc4n3)o2)cc1`, for which the pIC50 was 4.27.
With `CCCCc1ccc(-c2ccc(-c3cc(C(=O)O)c4cccc(Cl)c4n3)o2)cc1`, the pIC50 is 4.13.
Regarding `CCCOc1ccccc1-c1ccc(-c2cc(C(=O)O)c3cc([N+](=O)[O-])ccc3n2)o1`, the pIC50 was 4.34.
Consider `O=C(O)c1cc(-c2ccc(-c3ccccc3)o2)nc2ccc([N+](=O)[O-])cc12`, for which the pIC50 was less than 3.82.
For the compound `CCCCc1ccc(-c2ccc(-c3cc(C(=O)O)c4cc(C(C)C)ccc4n3)o2)cc1`, the pIC50 was 3.97.
As for `O=C(O)c1cc(-c2ccc(-c3cccc(Oc4ccccc4)c3)o2)nc2ccc([N+](=O)[O-])cc12`, the pIC50 is 4.65.
In the case of `CCCCc1ccc(-c2ccc(-c3cc(C(=O)O)c4cccc(Br)c4n3)o2)cc1`, the pIC50 is 4.62.
As to `CCCCc1ccc(-c2ccc(-c3cc(C(=O)O)c4ccc(Br)cc4n3)o2)cc1`, the pIC50 was 4.48.
On to `O=C(O)c1cc(-c2ccc(-c3ccc(Oc4ccccc4)cc3)o2)nc2ccc([N+](=O)[O-])cc12`, for which the pIC50 was 4.90.
Turning to `CCCCc1ccc(-c2ccc(-c3cc(C(=O)O)c4cc(F)c(F)cc4n3)o2)cc1`, the pIC50 is 4.27.
Consider `CCCCc1ccc(-c2cccc(-c3cc(C(=O)O)c4cc([N+](=O)[O-])ccc4n3)n2)cc1`, for which the negative-log IC50 (pIC50) is 4.07.
Turning to `CCCCc1ccc(-c2ccc(-c3cc(C(=O)O)c4cc([N+](=O)[O-])ccc4n3)[nH]2)cc1`, the pIC50 is 4.20.
The same measure for `CCCCc1ccc(-c2ccc(-c3cc(C(=O)O)c4cc([N+](=O)[O-])ccc4n3)cn2)cc1`: 4.22.
For the compound `CCCCCc1ccc(-c2ccc(-c3cc(C(=O)O)c4cc([N+](=O)[O-])ccc4n3)o2)cc1`, the pIC50 was 5.06.
Take `CCCCc1ccc(-c2cncc(-c3cc(C(=O)O)c4cc([N+](=O)[O-])ccc4n3)c2)cc1`: the pIC50 is less than 3.82.
For the compound `CCCCc1ccc(-c2ccc(-c3cc(C(=O)O)c4cc(F)ccc4n3)o2)cc1`, the pIC50 was 4.27.
For the compound `CCCOc1ccc(-c2ccc(-c3cc(C(=O)O)c4cc([N+](=O)[O-])ccc4n3)o2)cc1`, the negative logarithm of the IC50 (pIC50) is 4.34.
For `CCCCc1ccc(-c2ccc(-c3cc(C(=O)O)c4cc(CC)ccc4n3)o2)cc1` the value was 3.83.
As for `CCCOc1cccc(-c2ccc(-c3cc(C(=O)O)c4cc([N+](=O)[O-])ccc4n3)o2)c1`, the pIC50 was 4.21.
On to `CC(C)(C)OC(=O)Nc1cccc(-c2ccc(-c3cc(C(=O)O)c4cc([N+](=O)[O-])ccc4n3)o2)c1`, for which the pIC50 is 3.96.
`CC(C)(C)OC(=O)Nc1ccc(-c2ccc(-c3cc(C(=O)O)c4cc([N+](=O)[O-])ccc4n3)o2)cc1`: the pIC50 was 3.85.
The same measure for `O=C(O)c1cc(-c2ccc(-c3cccc(-c4ccccc4)c3)o2)nc2ccc([N+](=O)[O-])cc12`: 4.59; for `CCCCc1ccc(-c2cccc(-c3cc(C(=O)O)c4cc([N+](=O)[O-])ccc4n3)c2)cc1`: 4.13.
For `O=C(O)c1cc(-c2ccc(-c3cccc4ccccc34)o2)nc2ccc([N+](=O)[O-])cc12` the value was 4.44; for `CCCCc1ccc(-c2ccc(-c3cc(C(=O)O)c4cc(-c5ccccc5)ccc4n3)o2)cc1`, 3.91; for `CCCCc1ccc(-c2ccc(-c3cc(C(=O)O)c4ccc(C(F)(F)F)cc4n3)o2)cc1`, 4.21.
Turning to `CCCCc1ccc(-c2ccc(-c3cc(C(=O)O)c4cccc(C(F)(F)F)c4n3)o2)cc1`, the pIC50 was 4.57.
As to `CCCCc1ccc(-c2ccc(-c3cc(C(=O)O)c4cc(OC(F)(F)F)ccc4n3)o2)cc1`, the pIC50 was less than 3.82.
